From PubChem BioAssay AID248 (DTP/NCI, 2004)
Values joined by “and” are separate entries in the source; they are usually repeats but may differ in a detail not shown here. Equal entries are not always repeated. Toxic doses and inconclusive results are not listed. Rule as the data show it: active = T/C of 150% or more; inactive = T/C below 125%.

Test system: L1210 leukemia ip in BDF1 mice, survival T/C
Assay: NCI In Vivo Anticancer Drug Screen. Data for tumor model L1210 Leukemia (intraperitoneal) in B6D2F1 (BDF1) mice
Details: endpoint: mean survival time, higher = longer survival
Outline: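 Value reflects the ratio of survival in compound-treated mice to survival in vehicle-treated controls, with both groups carrying the same transplanted tumor.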

[1] = dose: 50.0 mg/kg/injection, schedule: Q01DX009 (ip), vehicle: saline
[2] = dose: 100.0 mg/kg/injection, schedule: Q04DX003 (ip), vehicle: saline
[3] = dose: 100.0 mg/kg/injection, schedule: Q01DX009 (ip), vehicle: Klucel (hydroxypropylcellulose) (HPC)
[4] = dose: 100.0 mg/kg/injection, schedule: Q04DX003 (ip), vehicle: Klucel (hydroxypropylcellulose) (HPC)
[5] = dose: 200.0 mg/kg/injection, schedule: Q01DX009 (ip), vehicle: Klucel (hydroxypropylcellulose) (HPC)
[6] = dose: 200.0 mg/kg/injection, schedule: Q04DX003 (ip), vehicle: Klucel (hydroxypropylcellulose) (HPC)
[7] = dose: 400.0 mg/kg/injection, schedule: Q01DX009 (ip), vehicle: Klucel (hydroxypropylcellulose) (HPC)
[8] = dose: 400.0 mg/kg/injection, schedule: Q04DX003 (ip), vehicle: Klucel (hydroxypropylcellulose) (HPC)
[9] = dose: 100.0 mg/kg/injection, schedule: Q04DX002 (ip), vehicle: saline
[10] = dose: 200.0 mg/kg/injection, schedule: Q04DX002 (ip), vehicle: saline
[11] = dose: 100.0 mg/kg/injection, schedule: Q01DX001 (ip), vehicle: other
[12] = dose: 200.0 mg/kg/injection, schedule: Q01DX001 (ip), vehicle: other
[13] = dose: 400.0 mg/kg/injection, schedule: Q01DX001 (ip), vehicle: other
[14] = dose: 100.0 mg/kg/injection, schedule: Q01DX009 (ip), vehicle: saline
[15] = dose: 200.0 mg/kg/injection, schedule: Q01DX009 (ip), vehicle: saline
[16] = dose: 200.0 mg/kg/injection, schedule: Q04DX003 (ip), vehicle: saline
[17] = dose: 100.0 mg/kg/injection, schedule: Q04DX003 (ip), vehicle: saline with Tween-80
[18] = dose: 200.0 mg/kg/injection, schedule: Q04DX003 (ip), vehicle: saline with Tween-80
[19] = dose: 400.0 mg/kg/injection, schedule: Q04DX003 (ip), vehicle: saline with Tween-80

Measured: T/C

N#Cc1cnn(C(N)=S)c1N
inactive: dose: 25.0 mg/kg/injection, schedule: Q01DX009 (ip), vehicle: saline 88 % of control | dose: 25.0 mg/kg/injection, schedule: Q04DX003 (ip), vehicle: saline 94 % of control | [1] 97 % of control | dose: 50.0 mg/kg/injection, schedule: Q04DX003 (ip), vehicle: saline 110 % of control | [2] 98 % of control

COC(=O)CC(C(=O)OC)N1CC1 (stereo not given)
inactive: dose: 75.0 mg/kg/injection, schedule: Q01DX001 (ip), vehicle: carboxymethylcellulose (CMC) 101 % of control

CC(CCl)NC(=O)Nc1cccc2c1CCCC2 (stereo not given)
inactive: [3] 102 % of control | [4] 106 % of control | [5] 103 % of control | [6] 106 % of control | [7] 97 % of control | [8] 103 % of control

O=C(CC(O)C(Cl)(Cl)Cl)CC(O)C(Cl)(Cl)Cl (stereo not given)
inactive: [9] 96 % of control | [10] 107 % of control

C/C(=N/O)c1ccc[nH]1
inactive: [11] 103 % of control | [12] 103 % of control | [13] 103 % of control

NNC(=O)[C@H]1CC[C@H]1C(=O)NN
inactive: [1] 102 % of control | [14] 109 % of control | [2] 103 % of control | dose: 130.0 mg/kg/injection, schedule: Q01DX009 (ip), vehicle: saline 106 % of control | [15] 106 % of control | [16] 104 % of control | dose: 264.0 mg/kg/injection, schedule: Q04DX003 (ip), vehicle: saline 105 % of control and 118 % of control and 91 % of control

O=C(O)CNC(=O)CNC(=O)C1NC(C(F)(F)F)(C(F)(F)F)OC1(C(F)(F)F)C(F)(F)F (stereo not given)
inactive: dose: 100.0 mg/kg/injection, schedule: Q01DX001 (ip), vehicle: Klucel (hydroxypropylcellulose) (HPC) 97 % of control | dose: 200.0 mg/kg/injection, schedule: Q01DX001 (ip), vehicle: Klucel (hydroxypropylcellulose) (HPC) 101 % of control | dose: 400.0 mg/kg/injection, schedule: Q01DX001 (ip), vehicle: Klucel (hydroxypropylcellulose) (HPC) 92 % of control

CN(C)c1ccc(C=Nc2ccc3c(c2)Cc2ccccc2-3)cc1
inactive: [3] 97 % of control | [4] 94 % of control | [5] 95 % of control | [6] 107 % of control | [7] 90 % of control | [8] 97 % of control

COc1cc(/C=N\N=C\c2ccc(O)c(OC)c2)ccc1O
inactive: [17] 100 % of control | [18] 94 % of control | [19] 93 % of control

C[Si](C)(C)C(c1ccccc1)(c1ccccc1)c1ccccc1
inactive: dose: 25.6 mg/kg/injection, schedule: Q04DX002 (ip), vehicle: saline with Tween-80 101 % of control | dose: 64.0 mg/kg/injection, schedule: Q04DX002 (ip), vehicle: saline with Tween-80 90 % of control | [18] 87 % of control | dose: 400.0 mg/kg/injection, schedule: Q04DX002 (ip), vehicle: saline with Tween-80 90 % of control | [19] 88 % of control

OCCSc1ncnc2nc[nH]c12
inactive: [17] 104 % of control | [18] 98 % of control | [19] 104 % of control

c1ccc(CN=C2c3ccccc3C3(c4ccccc4)C2N3Cc2ccccc2)cc1 (stereo not given)
inactive: [3] 103 % of control | [4] 98 % of control | [5] 103 % of control | [6] 101 % of control | [7] 103 % of control | [8] 97 % of control

O=C(OC(COC(c1ccccc1)(c1ccccc1)c1ccccc1)C(OC(=O)c1ccccc1)C(COC(c1ccccc1)(c1ccccc1)c1ccccc1)OC(=O)c1ccccc1)c1ccccc1 (stereo not given)
inactive: [4] 93 % of control | [6] 93 % of control | [8] 93 % of control

Oc1c(Cl)cc(Cl)cc1/C=N/Nc1nnc(N/N=C/c2cc(Cl)cc(Cl)c2O)c2ccccc12
inactive: dose: 50.0 mg/kg/injection, schedule: Q01DX001 (ip), vehicle: other 111 % of control | [11] 101 % of control | [12] 102 % of control | [13] 102 % of control

O=C(/C=C/c1ccccc1)OCc1ccccc1CN1CCCCC1
inactive: dose: 100.0 mg/kg/injection, schedule: Q04DX002 (ip), vehicle: Klucel (hydroxypropylcellulose) (HPC) 104 % of control | dose: 200.0 mg/kg/injection, schedule: Q04DX002 (ip), vehicle: Klucel (hydroxypropylcellulose) (HPC) 96 % of control | dose: 400.0 mg/kg/injection, schedule: Q04DX002 (ip), vehicle: Klucel (hydroxypropylcellulose) (HPC) 86 % of control

OCC1CC2CCC1CC2 (stereo not given)
inactive: dose: 50.0 mg/kg/injection, schedule: Q01DX009 (ip), vehicle: saline with Tween-80 100 % of control | dose: 100.0 mg/kg/injection, schedule: Q01DX009 (ip), vehicle: saline with Tween-80 105 % of control | dose: 200.0 mg/kg/injection, schedule: Q01DX009 (ip), vehicle: saline with Tween-80 108 % of control

NC(=O)C(=O)NCCCCN1CC1
inactive: dose: 12.5 mg/kg/injection, schedule: Q04DX003 (ip), vehicle: Klucel (hydroxypropylcellulose) (HPC) 97 % of control | dose: 25.0 mg/kg/injection, schedule: Q04DX003 (ip), vehicle: Klucel (hydroxypropylcellulose) (HPC) 97 % of control | dose: 50.0 mg/kg/injection, schedule: Q04DX003 (ip), vehicle: Klucel (hydroxypropylcellulose) (HPC) 102 % of control | [4] 114 % of control

CCO/N=C1\C(C)(C)C(C)(C)C(C)(C)C1(C)SS(=O)(=O)O (stereo not given)
inactive: dose: 75.0 mg/kg/injection, schedule: Q04DX002 (ip), vehicle: saline 101 % of control | dose: 150.0 mg/kg/injection, schedule: Q04DX002 (ip), vehicle: saline 96 % of control | dose: 300.0 mg/kg/injection, schedule: Q04DX002 (ip), vehicle: saline 93 % of control

CN(C)C=NCCOCc1ccccc1
inactive: [2] 98 % of control | [16] 93 % of control

NCC(O)C(F)(F)F (stereo not given)
inactive: dose: 100.0 mg/kg/injection, schedule: Q01DX001 (ip), vehicle: carboxymethylcellulose (CMC) 109 % of control | dose: 200.0 mg/kg/injection, schedule: Q01DX001 (ip), vehicle: carboxymethylcellulose (CMC) 97 % of control | dose: 400.0 mg/kg/injection, schedule: Q01DX001 (ip), vehicle: carboxymethylcellulose (CMC) 118 % of control

Nc1ccc2c(c1)C(=O)c1ccccc1C2=O
inactive: dose: 50.0 mg/kg/injection, schedule: Q01DX001 (ip), vehicle: saline 98 % of control | dose: 100.0 mg/kg/injection, schedule: Q01DX001 (ip), vehicle: saline 102 % of control | [14] 92 % of control | [9] 100 % of control | dose: 200.0 mg/kg/injection, schedule: Q01DX001 (ip), vehicle: saline 102 % of control | [15] 92 % of control | [10] 93 % of control | dose: 400.0 mg/kg/injection, schedule: Q01DX001 (ip), vehicle: saline 102 % of control | dose: 400.0 mg/kg/injection, schedule: Q01DX009 (ip), vehicle: saline 92 % of control | dose: 400.0 mg/kg/injection, schedule: Q04DX002 (ip), vehicle: saline 93 % of control
